According to US20240293394A1, “METHODS FOR TREATING ANTIPSYCHOTIC-INDUCED WEIGHT GAIN” (priority 2010, published 2024):
Read-outs that look alike come from different tables or passages of the source.

How the values were obtained:
[1] = patients; Taylor et al., Acta Psychiatr Scand. 2001; cited from earlier work
ghrelin [2] = details: known in literature; cited from earlier work
[3] = Olanzapine-related changes (body weight, adipose tissue, serum chemistry) in female cynomolgus monkeys; type: in vivo
Procedure: Clinical observations and weight gain were assessed over a 28-day treatment period. […] Beginning two weeks prior to the study, monkeys were given ad libitum access to a highly palatable, high caloric diet. On the day prior to the start of treatment, monkeys were weighed and assigned to groups using a randomized block design based on body weight (BW); average BW across the 3 groups was 3.1+0.08 kg on the day of randomization. Also, baseline whole body CT scans were taken on the day prior to initiation of treatments. […] A second CT scan was conducted on day 29.

[4] = Olanzapine-related weight gain in female rats; type: in vivo
Source text: The rats were assigned to treatment groups using a random block design based on initial body weight.

ghrelin [5] = test: Circulating ghrelin levels in conscious, unrestrained rats; type: in vivo; details: 10 mg/kg PO, two hours post administration
Procedure: To determine whether Compound1 and naltrexone have any effect on circulating levels of ghrelin, conscious, unrestrained rats (low stress model) were administered Compound 1 and nalrextone (10 mg/kg, PO). Blood samples were collected and analyzed by bioanalytical for circulating levels of ghrelin at 0, 15, 30, 60, and 120 minutes most administration.

[6] = olanzapine only, compared to the vehicle group
[7] = co-administration of Compound 1 0.4 mg/kg IM with olanzapine, serum, Day 28
[8] = olanzapine with Compound 1 0.4 mg/kg IM once daily, 28 days

Compound: O=C1Cc2cc(CCN3CCN(c4nsc5ccccc45)CC3)c(Cl)cc2N1 [ziprasidone, 5-[2-[4-(1,2-benzisothiazol-3-yl)-1-piperazinyl]ethyl]-6-chloro-1,3-dihydro-2H-indol-2-one]
- weight gain associated with atypical antipsychotic [1]: less

Compound: O=C1CCc2ccc(OCCCCN3CCN(c4cccc(Cl)c4Cl)CC3)cc2N1 [aripiprazole, 7-[4-[4-(2,3-dichlorophenyl)piperazin-1-yl]butoxy]-3,4-dihydro-1H-quinolin-2-one]
- weight gain associated with atypical antipsychotic [1]: less

Compound: Cc1cc2c(s1)Nc1ccccc1N=C2N1CCN(C)CC1 [olanzapine, 2-methyl-4-(4-methyl-1-piperazinyl)-10H-thieno[2,3-b][1,5]benzodiazepine]
- circulating ghrelin levels (ghrelin [2]): increases circulating ghrelin levels
- adipose tissue gain (CT scan) [3, 6]: gained relatively more adipose tissue compared to the vehicle group
- location of adipose tissue deposition (CT scan) [3, 6]: more abdominal fat accretion
- weight gain (body weight) ([4]; olanzapine alone 1 mg/kg PO twice daily, 10 consecutive days, vs vehicle control): greater increases in weight gain

Compound: OCCOCCN1CCN(C2=Nc3ccccc3Sc3ccccc32)CC1 [quetiapine, 2-(2-(4-dibenzo[b,f][1,4]thiazepine-11-yl-1-piperazinyl)ethoxy)ethanol]
- weight gain associated with atypical antipsychotic [1]: greatest

Compound: O=C1CC[C@@]2(O)[C@H]3Cc4ccc(O)c5c4[C@@]2(CCN3CC2CC2)[C@H]1O5 [naltrexone]
- circulating ghrelin levels (ghrelin [5]): significantly greater circulating ghrelin levels than Compound 1
- effect on olanzapine-induced weight gain ([4]; 2 mg/kg SC concurrent with afternoon olanzapine (1 mg/kg PO twice daily), 10 days): did not affect olanzapine-induced weight gain

Compound: NC(=O)c1ccc2c(c1O)[C@]13CCN(CC4CC4)[C@H](C2)[C@]1(O)CCC(=O)C3 [Compound 1]
- effect on olanzapine-induced elevation in LDL concentrations [3, 7]: prevented
- effect on olanzapine-induced elevation in TGs [3, 7]: prevented
- effect on OLZ-induced changes (weight, adipose tissue accretion, TGs and LDLs) ([3]; co-administration of Compound 1 with olanzapine, 28 days): mitigated
- average body weight gain [3, 8]: 0.08 kg
- average body weight gain, % of Day 0 BW [3, 8]: 2.6%
